Results as given in US4328359A, “15-Deoxy-16-substituted-19-chloro-20-nor-prostane derivatives of the E and F series” (American Cyanamid Company, priority 1981, dated 1982).

Columns and labels:
Format in all cases: in vivo
[1] = tested on: bronchospasms elicited by intravenous injections of serotonin; experiment: Konzett procedure: bronchodilator activity in Guinea-Pigs, serotonin-induced bronchospasm; conditions: Cavia porcellus, spasmogen serotonin, three logarithmic cumulative intravenous doses
Description: (§1) The bronchodilator activity for representative compounds of this invention was determined in Guinea-Pigs against bronchospasms elicited by intravenous injections of serotonin, histamine, and acetylcholine, by the Konzett procedure, the details of which are those discussed by J. Lulling, P. Lievens, F. El Sayed and J. Prignot, Arzeimittel-Forschung 18, 995 (1968).
(§2) In the table which follows, bronchodilator activity for representative compounds of the invention against spasmogenic agents serotonin, histamine, and acetylcholine is expressed as an ED50 determined from the results obtained with three logarithmic cumulative intravenous doses.

[2] = tested on: bronchospasms elicited by intravenous injections of histamine; experiment: Konzett procedure: bronchodilator activity in Guinea-Pigs, histamine-induced bronchospasm; conditions: Cavia porcellus, spasmogen histamine, three logarithmic cumulative intravenous doses
Description: as §1, §2

[3] = tested on: bronchospasms elicited by intravenous injections of acetylcholine; experiment: Konzett procedure: bronchodilator activity in Guinea-Pigs, acetylcholine-induced bronchospasm; conditions: Cavia porcellus, spasmogen acetylcholine, three logarithmic cumulative intravenous doses
Description: as §1, §2

O=C(O)CCC/C=C\C[C@H]1C(=O)C[C@@H](O)[C@@H]1/C=C/CC(O)CCCCl (relative stereo) [dl 11α,16-dehydroxy-9-oxo-19-chloro-20-nor-5-cis,13-trans prostadienoic acid]
ED50 [1]: 4.65 µg/kg | ED50 [2]: 4.4 µg/kg | ED50 [3]: 6.8 µg/kg
